Calls of active or inactive are those of the source. No cut-off for these calls is given here.
What was measured:
[1] = system: Cydia pomonella; assay: Inhibition of fruit-infesting behavior of Cydia pomonella (codling moth) neonates infested in apple fruit plugs assessed as feeding deterrence index at 0.1 mg/mL; assay type: functional
[2] = system: Cydia pomonella; assay: Inhibition of fruit-infesting behavior of Cydia pomonella (codling moth) neonates infested in apple fruit plugs assessed as feeding deterrence index at 1 mg/mL; assay type: functional
[3] = system: Cydia pomonella; assay: Inhibition of fruit-infesting behavior of Cydia pomonella (codling moth) neonates infested in apple fruit plugs assessed as feeding deterrence index at 10 mg/mL; assay type: functional
[4] = system: Cydia pomonella; assay: Inhibition of fruit-infesting behavior of Cydia pomonella (codling moth) neonates infested in apple fruit plugs assessed as feeding deterrence index at 30 mg/mL; assay type: functional, organism-based
[5] = system: Cydia pomonella; assay: Inhibition of fruit-infesting behavior of Cydia pomonella (codling moth) neonates infested in apple fruit plugs assessed as feeding deterrence index at 2 mg/mL; assay type: functional
[6] = system: Cydia pomonella; assay: Inhibition of fruit-infesting behavior of Cydia pomonella (codling moth) neonates infested in apple fruit plugs assessed as feeding deterrence index at 5 mg/mL; assay type: functional
[7] = system: Cydia pomonella; assay: Inhibition of fruit-infesting behavior of Cydia pomonella (codling moth) neonates infested in apple fruit plugs assessed as feeding deterrence index at 0.5 mg/mL; assay type: functional
[8] = system: Cydia pomonella; assay: Inhibition of fruit-infesting behavior of Cydia pomonella (codling moth) neonates infested in apple fruit plugs assessed as feeding deterrence index at 0.2 mg/mL; assay type: functional
[9] = system: Cydia pomonella; assay: Inhibition of fruit-infesting behavior of Cydia pomonella (codling moth) neonates infested in apple fruit plugs assessed as feeding deterrence index at 0.01 mg/mL; assay type: functional
[10] = system: Cydia pomonella; assay: Inhibition of fruit-infesting behavior of Cydia pomonella (codling moth) neonates infested in apple fruit plugs assessed as feeding deterrence index at 0.001 mg/mL; assay type: functional
[11] = system: Cydia pomonella; assay: Inhibition of fruit-infesting behavior of Cydia pomonella (codling moth) neonates infested in apple fruit plugs assessed as feeding deterrence index at 3 mg/mL; assay type: functional
[12] = system: Cydia pomonella; assay: Inhibition of fruit-infesting behavior of Cydia pomonella (codling moth) neonates infested in apple fruit plugs assessed as feeding deterrence index at 60 mg/mL; assay type: functional, organism-based

Structure (SMILES) | FDI [1] | FDI [2] | FDI [3] | FDI [6] [%] | FDI [7] [%] | further results
O=c1c(O)c(-c2ccc(O)c(O)c2)oc2cc(O)cc(O)c12 | inactive | inactive | inactive | – | – | FDI [4]: inactive
CCCCCCCCCCCCCCCc1cccc(O)c1C(=O)O [ANACARDIC ACID] | – | 91.7% | – | 81.8 | 26.7 | FDI [5]: 73.7%; FDI [8]: 25%
CC(C)(C)[C@]1(O)CC2OC(=O)CC23C(=O)OC2OC(=O)[C@H](O)C231 (some centres undefined) [BILOBALIDE] | 56.5% | 50% | 75% | – | – | FDI [9]: 23.5%; FDI [10]: 0%
CCCCCC/C=C\CCCCCCCc1cccc(O)c1C(=O)O [GINGKOLIC ACID] | – | 41.7% | 63.2% | 50 | 18.8 | –
CCCCCCCCCCCCCc1cccc(O)c1C(=O)O [GINKGOLIC ACID 13:0] | – | 26.1% | 42.1% | 0 | 23.5 | –
CCCCCC/C=C\CCCCCCCCCc1cccc(O)c1C(=O)O [GINKGOLIC ACID 17:1] | – | 5.3% | 60% | 54.5 | 37.5 | –
C[C@@H]1C(=O)O[C@H]2C[C@@]34[C@H]5C[C@@H](C(C)(C)C)[C@]36[C@@H](OC(=O)[C@@H]6O)O[C@@]4(C(=O)O5)[C@]21O [GINKGOLIDE A] | 7.69% | 40.4% | 38.5% | – | – | –
C[C@@H]1C(=O)O[C@H]2[C@H](O)[C@@]34O[C@@H]5OC(=O)[C@H](O)[C@@]56[C@H](C(C)(C)C)[C@H](O)C(OC3=O)[C@]64[C@@]12O (some centres undefined) [GINKGOLIDE C] | 11.8% | 20% | 10% | – | – | –
C[C@@H]1C(=O)O[C@H]2[C@H](O)[C@@]34[C@H]5C[C@@H](C(C)(C)C)[C@]36[C@@H](OC(=O)[C@@H]6O)O[C@@]4(C(=O)O5)[C@@]12O [GINKOLIDE B] | 12.5% | 26.1% | 76% | – | – | –
COc1cc(-c2oc3cc(O)cc(O)c3c(=O)c2O)ccc1O [ISORHAMNETIN] | 10.3% | inactive | – | – | – | FDI [11]: 32.1%; FDI [9]: 21.7%
O=c1c(O)c(-c2ccc(O)cc2)oc2cc(O)cc(O)c12 [KAEMPFEROL] | inactive | 25% | inactive | – | – | FDI [12]: inactive; FDI [4]: inactive

Reference: ChEMBL document CHEMBL3046245, “Effects of Ginkgo biloba constituents on fruit-infesting behavior of codling moth (Cydia pomonella) in apples” (2011)
